Assays:
Assay in all cases: KinaseProfiler off-target kinase profiling
Type in all cases: biochemical
Settings in all cases: 10 μM, ATP near Km
NEK6 = NEK6 (Homo sapiens (Human), UniProt Q9HC98)
How it was run: (§1)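 Duplicate single-dose screen (10 μM). ATP concentration approximates Km for the individual kinase. Values = average POC.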

PKCiota = PKCiota (Homo sapiens (Human), UniProt P41743)
How it was run: as §1

EphA2 = EphA2 (Homo sapiens (Human), UniProt P29317)
How it was run: as §1

IGF-1R = IGF-1R (Homo sapiens (Human), UniProt P08069)
How it was run: as §1

SGK3 = SGK3 (Homo sapiens (Human), UniProt Q96BR1)
How it was run: as §1

CDK5/p25 = CDK5/p25 (Homo sapiens (Human), UniProt Q00535)
How it was run: as §1

MKK6 = MKK6 (Homo sapiens (Human), UniProt P52564)
How it was run: as §1

ALK4 = ALK4 (Homo sapiens (Human), UniProt P36896)
How it was run: as §1

Rsk4 = Rsk4 (Homo sapiens (Human), UniProt Q9UK32)
How it was run: as §1

AURKA = AURKA (Homo sapiens (Human), UniProt O14965)
How it was run: as §1

Lyn = Lyn (Homo sapiens (Human), UniProt P07948)
How it was run: as §1

MAPKAP-K5 = MAPKAP-K5 (Homo sapiens (Human), UniProt Q8IW41)
How it was run: as §1

CK1_y = test system: CK1_y
How it was run: as §1

GRK5 = GRK5 (Homo sapiens (Human), UniProt P34947)
How it was run: as §1

BLK_m = BLK_m (Mus musculus (Mouse), UniProt P16277)
How it was run: as §1

SRPK2 = SRPK2 (Homo sapiens (Human), UniProt P78362)
How it was run: as §1

Bmx = Bmx (Homo sapiens (Human), UniProt P51813)
How it was run: as §1

MRCKbeta = MRCKbeta (Homo sapiens (Human), UniProt Q9Y5S2)
How it was run: as §1

PRK2 = PRK2 (Homo sapiens (Human), UniProt Q16513)
Chain of PRK2 (Q16513 whole entry): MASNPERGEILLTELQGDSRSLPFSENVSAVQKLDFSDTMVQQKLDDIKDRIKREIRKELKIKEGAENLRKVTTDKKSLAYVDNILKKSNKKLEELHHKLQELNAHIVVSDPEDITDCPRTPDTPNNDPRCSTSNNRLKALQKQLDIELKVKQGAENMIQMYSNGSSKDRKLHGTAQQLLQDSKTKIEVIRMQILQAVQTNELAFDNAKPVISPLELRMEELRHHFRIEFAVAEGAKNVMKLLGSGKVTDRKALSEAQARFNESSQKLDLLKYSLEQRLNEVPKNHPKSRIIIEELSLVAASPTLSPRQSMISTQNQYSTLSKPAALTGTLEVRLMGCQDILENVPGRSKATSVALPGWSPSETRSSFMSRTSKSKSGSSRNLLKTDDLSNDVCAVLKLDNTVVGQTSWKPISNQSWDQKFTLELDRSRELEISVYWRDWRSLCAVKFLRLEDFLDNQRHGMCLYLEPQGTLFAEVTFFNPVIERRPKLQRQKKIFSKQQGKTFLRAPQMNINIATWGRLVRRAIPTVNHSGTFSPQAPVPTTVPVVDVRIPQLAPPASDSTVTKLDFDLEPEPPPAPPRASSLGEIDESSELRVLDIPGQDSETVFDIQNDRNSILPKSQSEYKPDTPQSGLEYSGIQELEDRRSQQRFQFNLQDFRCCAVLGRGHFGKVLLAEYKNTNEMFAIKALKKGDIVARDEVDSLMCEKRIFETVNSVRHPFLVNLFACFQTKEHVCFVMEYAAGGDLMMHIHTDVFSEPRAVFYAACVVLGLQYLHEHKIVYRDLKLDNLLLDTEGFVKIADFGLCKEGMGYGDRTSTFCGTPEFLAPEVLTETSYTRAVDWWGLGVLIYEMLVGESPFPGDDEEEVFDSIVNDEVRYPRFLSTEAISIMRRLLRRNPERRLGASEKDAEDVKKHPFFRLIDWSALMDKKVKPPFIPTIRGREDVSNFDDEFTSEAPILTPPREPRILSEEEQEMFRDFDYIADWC
How it was run: as §1

CAMK4 = CAMK4 (Homo sapiens (Human), UniProt Q16566)
How it was run: as §1

DDR2 = DDR2 (Homo sapiens (Human), UniProt Q16832)
Chain of DDR2 (Q16832 22-855): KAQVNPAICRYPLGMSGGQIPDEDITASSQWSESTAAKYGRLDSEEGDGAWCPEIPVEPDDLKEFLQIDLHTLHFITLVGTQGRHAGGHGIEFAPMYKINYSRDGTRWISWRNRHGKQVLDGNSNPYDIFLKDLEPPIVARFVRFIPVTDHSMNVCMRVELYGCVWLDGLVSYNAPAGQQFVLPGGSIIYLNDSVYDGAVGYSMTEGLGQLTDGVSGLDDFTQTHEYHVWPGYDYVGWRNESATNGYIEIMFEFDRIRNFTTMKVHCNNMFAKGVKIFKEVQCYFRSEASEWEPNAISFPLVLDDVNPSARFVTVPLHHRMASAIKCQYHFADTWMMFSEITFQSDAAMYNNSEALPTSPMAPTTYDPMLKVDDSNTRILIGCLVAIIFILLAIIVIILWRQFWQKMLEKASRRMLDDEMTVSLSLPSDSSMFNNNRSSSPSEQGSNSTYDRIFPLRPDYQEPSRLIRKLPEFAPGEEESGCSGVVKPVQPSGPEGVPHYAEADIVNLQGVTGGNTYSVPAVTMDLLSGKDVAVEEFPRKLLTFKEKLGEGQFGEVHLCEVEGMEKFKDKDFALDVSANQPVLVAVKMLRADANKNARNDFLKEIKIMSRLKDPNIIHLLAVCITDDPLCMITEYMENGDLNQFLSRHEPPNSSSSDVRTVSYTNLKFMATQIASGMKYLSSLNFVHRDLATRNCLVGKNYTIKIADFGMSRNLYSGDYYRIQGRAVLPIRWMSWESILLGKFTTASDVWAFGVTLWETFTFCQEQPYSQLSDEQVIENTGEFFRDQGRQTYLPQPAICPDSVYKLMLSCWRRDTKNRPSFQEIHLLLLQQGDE
How it was run: as §1

MSSK1 = MSSK1 (Homo sapiens (Human), UniProt Q9UPE1)
How it was run: as §1

CK1gamma1 = CK1gamma1 (Homo sapiens (Human), UniProt Q9HCP0)
Chain of CK1gamma1 (Q9HCP0 whole entry): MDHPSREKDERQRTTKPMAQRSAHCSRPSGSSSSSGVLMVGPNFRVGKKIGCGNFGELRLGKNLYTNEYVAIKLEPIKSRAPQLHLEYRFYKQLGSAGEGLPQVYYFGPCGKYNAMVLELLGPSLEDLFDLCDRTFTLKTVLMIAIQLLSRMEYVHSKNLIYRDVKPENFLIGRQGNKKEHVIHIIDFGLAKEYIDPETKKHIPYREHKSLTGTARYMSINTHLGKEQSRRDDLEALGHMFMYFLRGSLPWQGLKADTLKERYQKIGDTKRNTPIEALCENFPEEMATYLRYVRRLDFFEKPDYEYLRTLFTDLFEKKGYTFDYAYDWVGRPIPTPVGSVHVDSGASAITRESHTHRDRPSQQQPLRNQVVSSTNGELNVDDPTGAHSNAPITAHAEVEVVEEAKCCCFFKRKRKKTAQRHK
How it was run: as §1

TSSK2 = TSSK2 (Homo sapiens (Human), UniProt Q96PF2)
Chain of TSSK2 (Q96PF2 whole entry): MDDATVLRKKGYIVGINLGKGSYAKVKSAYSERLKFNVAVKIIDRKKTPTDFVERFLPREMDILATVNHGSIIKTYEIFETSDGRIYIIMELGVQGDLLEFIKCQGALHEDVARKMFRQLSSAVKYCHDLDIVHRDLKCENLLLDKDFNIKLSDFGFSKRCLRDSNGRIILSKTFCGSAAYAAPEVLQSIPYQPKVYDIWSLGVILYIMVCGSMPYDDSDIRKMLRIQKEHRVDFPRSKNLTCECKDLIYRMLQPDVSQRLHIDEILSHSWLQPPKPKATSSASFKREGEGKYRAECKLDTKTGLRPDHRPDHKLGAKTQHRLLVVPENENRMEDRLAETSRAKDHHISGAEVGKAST
How it was run: as §1

ITK = ITK (Homo sapiens (Human), UniProt Q08881)
How it was run: as §1

PDGFRalpha = PDGFRalpha (Homo sapiens (Human), UniProt P16234)
How it was run: as §1

DRAK1 = DRAK1 (Homo sapiens (Human), UniProt Q9UEE5)
How it was run: as §1

MELK = MELK (Homo sapiens (Human), UniProt Q14680)
How it was run: as §1

TEC Activated = TEC Activated (Homo sapiens (Human), UniProt P42680)
Chain of TEC Activated (P42680 whole entry): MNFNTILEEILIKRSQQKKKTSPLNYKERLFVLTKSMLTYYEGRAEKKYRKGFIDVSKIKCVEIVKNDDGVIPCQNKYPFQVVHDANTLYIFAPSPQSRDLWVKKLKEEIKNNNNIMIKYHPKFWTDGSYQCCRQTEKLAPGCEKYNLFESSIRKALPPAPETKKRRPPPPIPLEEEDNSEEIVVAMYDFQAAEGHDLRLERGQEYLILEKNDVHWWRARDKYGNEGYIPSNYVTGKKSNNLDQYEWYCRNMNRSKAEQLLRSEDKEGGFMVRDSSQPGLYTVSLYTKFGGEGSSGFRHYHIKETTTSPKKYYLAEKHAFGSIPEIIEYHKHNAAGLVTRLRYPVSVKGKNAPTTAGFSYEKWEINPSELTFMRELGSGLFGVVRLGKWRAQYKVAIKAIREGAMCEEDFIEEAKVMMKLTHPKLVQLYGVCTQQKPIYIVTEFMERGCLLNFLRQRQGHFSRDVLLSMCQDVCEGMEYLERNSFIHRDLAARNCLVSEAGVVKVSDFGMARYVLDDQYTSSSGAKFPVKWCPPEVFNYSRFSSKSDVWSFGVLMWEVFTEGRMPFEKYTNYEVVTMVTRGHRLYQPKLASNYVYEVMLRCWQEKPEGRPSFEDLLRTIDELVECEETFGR
How it was run: as §1

CDK5/p35 = CDK5/p35 (Homo sapiens (Human), UniProt Q00535)
How it was run: as §1

Rsk1 = Rsk1 (Homo sapiens (Human), UniProt Q15418)
How it was run: as §1

GRK7 = GRK7 (Homo sapiens (Human), UniProt Q8WTQ7)
How it was run: as §1

PDGFRbeta = PDGFRbeta (Homo sapiens (Human), UniProt P09619)
How it was run: as §1

IKKalpha = IKKalpha (Homo sapiens (Human), UniProt O15111)
How it was run: as §1

LKB1 = LKB1 (Homo sapiens (Human), UniProt Q15831)
How it was run: as §1

TAK1 = TAK1 (Homo sapiens (Human), UniProt O43318)
How it was run: as §1

ROCK-II = ROCK-II (Homo sapiens (Human), UniProt O75116)
How it was run: as §1

DAPK3 = DAPK3 (Homo sapiens (Human), UniProt O43293)
How it was run: as §1

RIPK2 = RIPK2 (Homo sapiens (Human), UniProt O43353)
How it was run: as §1

Chain of EphA2 (P29317 24-976): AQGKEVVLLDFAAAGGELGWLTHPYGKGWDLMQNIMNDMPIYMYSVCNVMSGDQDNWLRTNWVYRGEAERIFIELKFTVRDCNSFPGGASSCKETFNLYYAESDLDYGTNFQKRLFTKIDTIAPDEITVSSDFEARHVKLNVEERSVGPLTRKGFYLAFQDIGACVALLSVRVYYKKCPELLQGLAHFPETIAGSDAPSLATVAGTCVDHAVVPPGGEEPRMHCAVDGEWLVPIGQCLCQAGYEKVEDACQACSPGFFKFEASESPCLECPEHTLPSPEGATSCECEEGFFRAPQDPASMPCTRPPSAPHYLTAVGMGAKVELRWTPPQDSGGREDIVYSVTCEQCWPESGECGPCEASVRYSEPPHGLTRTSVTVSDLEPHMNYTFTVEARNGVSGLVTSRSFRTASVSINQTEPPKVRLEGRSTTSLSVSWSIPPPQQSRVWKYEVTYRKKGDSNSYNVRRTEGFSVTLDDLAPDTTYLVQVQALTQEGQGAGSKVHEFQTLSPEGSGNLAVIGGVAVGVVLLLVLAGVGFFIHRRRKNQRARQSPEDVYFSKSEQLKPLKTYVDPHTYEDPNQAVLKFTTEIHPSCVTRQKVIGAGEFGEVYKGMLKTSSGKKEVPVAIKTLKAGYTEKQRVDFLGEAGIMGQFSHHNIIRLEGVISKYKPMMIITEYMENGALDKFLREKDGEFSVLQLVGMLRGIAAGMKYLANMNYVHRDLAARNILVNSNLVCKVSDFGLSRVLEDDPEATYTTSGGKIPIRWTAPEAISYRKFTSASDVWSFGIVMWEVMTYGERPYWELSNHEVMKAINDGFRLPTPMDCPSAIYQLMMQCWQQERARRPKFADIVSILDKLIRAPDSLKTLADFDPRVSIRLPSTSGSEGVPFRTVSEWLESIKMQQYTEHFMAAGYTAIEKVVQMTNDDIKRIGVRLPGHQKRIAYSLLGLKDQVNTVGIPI
Chain of PKCiota (P41743 whole entry): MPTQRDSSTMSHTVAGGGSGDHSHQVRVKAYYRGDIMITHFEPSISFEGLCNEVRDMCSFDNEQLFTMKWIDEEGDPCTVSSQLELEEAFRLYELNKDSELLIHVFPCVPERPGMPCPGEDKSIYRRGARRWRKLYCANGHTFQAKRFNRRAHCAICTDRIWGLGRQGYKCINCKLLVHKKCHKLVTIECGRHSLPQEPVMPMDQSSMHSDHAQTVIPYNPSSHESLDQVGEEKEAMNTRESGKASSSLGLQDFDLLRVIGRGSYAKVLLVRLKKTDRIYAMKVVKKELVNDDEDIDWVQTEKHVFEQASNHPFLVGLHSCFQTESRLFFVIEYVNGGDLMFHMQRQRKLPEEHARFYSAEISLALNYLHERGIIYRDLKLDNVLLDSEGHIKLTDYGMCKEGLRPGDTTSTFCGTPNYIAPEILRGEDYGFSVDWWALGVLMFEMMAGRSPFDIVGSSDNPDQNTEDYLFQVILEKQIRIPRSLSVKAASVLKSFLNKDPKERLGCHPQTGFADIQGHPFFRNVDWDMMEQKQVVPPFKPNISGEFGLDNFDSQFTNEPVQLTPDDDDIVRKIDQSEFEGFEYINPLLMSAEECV

COCc1ccc2c(c1)C(NC(=O)Nc1c(C)c(-c3cnn(C)c3)nn1-c1ccccc1)COC2 (stereo not drawn) [Example 32, 1-(1′,4-dimethyl-1-phenyl-1H,1′H-[3,4′-bipyrazol]-5-yl)-3-(6-(methoxymethyl)isochroman-4-yl)urea]
Avg. POC (NEK6): 123 POC
Avg. POC (PKCiota): 71 POC
Avg. POC (EphA2): 118 POC
Avg. POC (IGF-1R): 84.5 POC
Avg. POC (SGK3): 134 POC
Avg. POC (CDK5/p25): 106 POC
Avg. POC (MKK6): 134.5 POC
Avg. POC (ALK4): 100.5 POC
Avg. POC (Rsk4): 95 POC
Avg. POC (AURKA): 112.5 POC
Avg. POC (Lyn): 106.5 POC
Avg. POC (MAPKAP-K5): 108 POC
Avg. POC (CK1_y): 107.5 POC
Avg. POC (GRK5): 90 POC
Avg. POC (BLK_m): 111 POC
Avg. POC (SRPK2): 106.5 POC
Avg. POC (Bmx): 106.5 POC
Avg. POC (MRCKbeta): 103 POC
Avg. POC (PRK2): 99.5 POC
Avg. POC (CAMK4): 102 POC
Avg. POC (DDR2): 116 POC
Avg. POC (MSSK1): 105.5 POC
Avg. POC (CK1gamma1): 111.5 POC
Avg. POC (TSSK2): 120.5 POC
Avg. POC (ITK): 124 POC
Avg. POC (PDGFRalpha): 112.5 POC
Avg. POC (DRAK1): 105.5 POC
Avg. POC (MELK): 98 POC
Avg. POC (TEC Activated): 108.5 POC
Avg. POC (CDK5/p35): 112 POC
Avg. POC (Rsk1): 111.5 POC
Avg. POC (GRK7): 117.5 POC
Avg. POC (PDGFRbeta): 131.5 POC
Avg. POC (IKKalpha): 102 POC
Avg. POC (LKB1): 100 POC
Avg. POC (TAK1): 99.5 POC
Avg. POC (ROCK-II): 106 POC
Avg. POC (DAPK3): 111 POC
Avg. POC (RIPK2): 99.5 POC

Reference: patent US10351575B2, “Bicyclic urea, thiourea, guanidine and cyanoguanidine compounds useful for the treatment of pain” (Array BioPharma Inc., priority 2012, dated 2019)
